According to PubChem BioAssay AID1963865 (Molecular Pharmacology Branch, DTP, NCI, 2024):

Test system: KRAS PDC multicell spheroid viability
Test: Anticancer human tumor 825966-067-R-J1-PDC patient-derived colon carcinoma cell line growth inhibition [KRAS2]
Details: for IC50: curve of first compound; for viability, T/C: stronger effect = lower value; active = viability on the fitted dose curve at most 10% of control; inactive = the rest
Description: Multicellular complex tumor spheroid response to RAS pathway inhibitors in combination with a targeted agents in patient-derived cell lines with oncogenic KRAS variants from multiple cancer types
A high-throughput screen of multi-cell type tumor spheroids was designed to identify active combinations of targeted small molecules and KRAS pathway inhibitors. Complex spheroids include a stromal component modeled by human endothelial cells (HUVEC) and fibroblasts modeled by human mesenchymal stem cells (MSCs). The concentration ranges selected for each drug and investigational agent were based upon clinically achievable concentrations if the clinical Cmax of the agent was known.
Compounds. The drugs and investigational agents: BI-3406 (NSC825286), BAY-293 (NSC824723), batoprotafib (TNO155; NSC825523), sotorasib (AMG 510; NSC818433), MRTX1257 (NSC819558), elimusertib (BAY 1895344; NSC800525), molibresib (GSK525762; NSC774829), temuterkib (LY3214996; NSC803410), venetoclax (NSC766270), alisertib (NSC759677), olaparib (NSC753686), talazoparib (NSC767125), erdafitinib (NSC781556), ipatasertib (NSC767898), cabozantinib (NSC761068), nintedanib (NSC756659), abemaciclib (NSC768073), docetaxel (NSC628503), trametinib (NSC758246), and sapanisertib (NSC764658) were obtained from the National Cancer Institute (NCI) Developmental Therapeutics Program Chemical Repository. The FDA-approved anticancer drug set is available from the Developmental Therapeutics Program. […] The stock solutions were prepared in dimethyl sulfoxide (DMSO, Sigma-Aldrich, St. Louis, MO, cat. D2650) at 800-fold the tested concentration and stored at -70 degrees C prior to their use. All drugs and investigational agents were tested over a range starting from a high concentration at or near the clinical Cmax and decreasing in half-log increments. If the clinical Cmax for an agent had not been determined, the highest concentration tested was 10 microM.
Cell Culture. All cells were maintained in an incubator at 37 degrees C and 5% CO2 with 95% humidity. The PDC lines were cultured according to standard operating procedures established by the NCI PDMR (https://pdmr.cancer.gov/sops/default.htm). Briefly, all PDCs were thawed and cultured in Matrigel-coated flasks prepared with a working solution of 1X Ham's F-12 nutrient mix, without supplementation (Invitrogen, Waltham, MA, cat. 11765054), 100 U/mL penicillin-streptomycin (Invitrogen, cat. 15140122), and 2.5% Matrigel (Corning Inc., Corning, NY, cat. 354248) for the first three passages. All PDCs were cultured in complete DMEM/F-12 media containing advanced DMEM/F-12 (Invitrogen, cat. 12634028), 4.9% defined fetal bovine serum, heat inactivated (HyClone Laboratories Inc., Logan, UT, cat. SH30070.03HI), 389 ng/mL hydrocortisone (Sigma-Aldrich, cat. H4001), 9.7 ng/mL human EGF recombinant protein (Invitrogen, cat. PHG0313), 23.4 microg/mL adenine (Sigma-Aldrich, cat. A2786), 97.3 U/mL penicillin-streptomycin (Invitrogen, cat. 15140122), 1.9 mM L-glutamine (Invitrogen, cat. 25030081), and 9.7 microM Y-27632 dihydrochloride (Tocris Bioscience, Bristol, United Kingdom, cat. 1254). The PDCs were cultured in complete DMEM/F12 media without 9.7 microM Y-27632 dihydrochloride for at least two passages prior to the screen. The established cell line HOP-62 was cultured in RPMI 1640 medium, HEPES (Invitrogen, cat. 22400105) with 10% defined fetal bovine serum (HyClone Laboratories Inc., cat. SH30070.03) and 2 mM L-glutamine (Invitrogen, cat. 25030081). The pooled donor HUVEC were cultured in endothelial cell growth medium 2 (PromoCell, Heidelberg, Germany, cat. C-22011) and the hMSC were cultured in mesenchymal stem cell growth medium 2 (PromoCell, cat. C-28009). For all experiments, HUVEC and hMSC were used at passages </=5, while the malignant cell lines were used at passages </=15. […]

[1] = second compound 0.1 µM, first compound 0.000316 µM
[2] = second compound 0.1 µM, first compound 0.001 µM
[3] = second compound 0.1 µM, first compound 0.00316 µM
[4] = second compound 0.1 µM, first compound 0.01 µM
[5] = second compound 0.1 µM, first compound 0.0316 µM
[6] = second compound 0.316 µM, first compound 0.000316 µM
[7] = second compound 0.316 µM, first compound 0.001 µM
[8] = second compound 0.316 µM, first compound 0.00316 µM
[9] = second compound 0.316 µM, first compound 0.01 µM
[10] = second compound 0.316 µM, first compound 0.0316 µM
[11] = second compound 1 µM, first compound 0.000316 µM
[12] = second compound 1 µM, first compound 0.001 µM
[13] = second compound 1 µM, first compound 0.00316 µM
[14] = second compound 1 µM, first compound 0.01 µM
[15] = second compound 1 µM, first compound 0.0316 µM
[16] = second compound 3.16 µM, first compound 0.000316 µM
[17] = second compound 3.16 µM, first compound 0.001 µM
[18] = second compound 3.16 µM, first compound 0.00316 µM
[19] = second compound 3.16 µM, first compound 0.01 µM
[20] = second compound 3.16 µM, first compound 0.0316 µM
[21] = second compound 10 µM, first compound 0.000316 µM
[22] = second compound 10 µM, first compound 0.001 µM
[23] = second compound 10 µM, first compound 0.00316 µM
[24] = second compound 10 µM, first compound 0.01 µM
[25] = second compound 10 µM, first compound 0.0316 µM
[26] = second compound 0.1 µM, first compound 0.1 µM
[27] = second compound 0.316 µM, first compound 0.1 µM
[28] = second compound 1 µM, first compound 0.1 µM
[29] = second compound 3.16 µM, first compound 0.1 µM
[30] = second compound 10 µM, first compound 0.1 µM
[31] = second compound 0.1 µM, first compound 0.316 µM
[32] = second compound 0.1 µM, first compound 1 µM
[33] = second compound 0.1 µM, first compound 3.16 µM
[34] = second compound 0.1 µM, first compound 10 µM
[35] = second compound 0.316 µM, first compound 0.316 µM
[36] = second compound 0.316 µM, first compound 1 µM
[37] = second compound 0.316 µM, first compound 3.16 µM
[38] = second compound 0.316 µM, first compound 10 µM
[39] = second compound 1 µM, first compound 0.316 µM
[40] = second compound 1 µM, first compound 1 µM
[41] = second compound 1 µM, first compound 3.16 µM
[42] = second compound 1 µM, first compound 10 µM
[43] = second compound 3.16 µM, first compound 0.316 µM
[44] = second compound 3.16 µM, first compound 1 µM
[45] = second compound 3.16 µM, first compound 3.16 µM
[46] = second compound 3.16 µM, first compound 10 µM
[47] = second compound 10 µM, first compound 0.316 µM
[48] = second compound 10 µM, first compound 1 µM
[49] = second compound 10 µM, first compound 3.16 µM
[50] = second compound 10 µM, first compound 10 µM
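Also: spheroids exposed to compounds for 7 days.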

CC(=O)Nc1cccc(-n2c(=O)n(C3CC3)c(=O)c3c(Nc4ccc(I)cc4F)n(C)c(=O)c(C)c32)c1 + C=CC(=O)N1CCN(c2nc(=O)n(-c3c(C)ccnc3C(C)C)c3nc(-c4c(O)cccc4F)c(F)cc23)C(C)C1
inactive: viability, T/C (second compound 0.1 µM, first compound 0.0001 µM) 91.9% | viability, T/C [1] 84.9% | viability, T/C [2] 99.5% | viability, T/C [3] 128% | viability, T/C [4] 72.5% | viability, T/C [5] 23.7% | viability, T/C (second compound 0.316 µM, first compound 0.0001 µM) 84.8% | viability, T/C [6] 82.7% | viability, T/C [7] 111% | viability, T/C [8] 129% | viability, T/C [9] 95.6% | viability, T/C [10] 31.8% | viability, T/C (second compound 1 µM, first compound 0.0001 µM) 92.2% | viability, T/C [11] 89.4% | viability, T/C [12] 99.8% | viability, T/C [13] 114% | viability, T/C [14] 102% | viability, T/C [15] 52.5% | viability, T/C (second compound 3.16 µM, first compound 0.0001 µM) 72.2% | viability, T/C [16] 97.7% | viability, T/C [17] 95.4% | viability, T/C [18] 97.3% | viability, T/C [19] 80.2% | viability, T/C [20] 45.9% | viability, T/C (second compound 10 µM, first compound 0.0001 µM) 81.3% | viability, T/C [21] 89.5% | viability, T/C [22] 77.3% | viability, T/C [23] 101% | viability, T/C [24] 55.2% | viability, T/C [25] 37.6%
27.5 nM: IC50 (second compound 3.16 µM)
> 31.6 nM: IC50 (second compound 1 µM)
22.8 nM: IC50 (second compound 0.316 µM)
14.1 nM: IC50 (second compound 10 µM)
17 nM: IC50 (second compound 0.1 µM)

CC(C)n1nc(-c2ccc3oc(N)nc3c2)c2c(N)ncnc21 + C=CC(=O)N1CCN(c2nc(=O)n(-c3c(C)ccnc3C(C)C)c3nc(-c4c(O)cccc4F)c(F)cc23)C(C)C1
inactive: viability, T/C [1] 113% | viability, T/C [2] 116% | viability, T/C [3] 114% | viability, T/C [4] 147% | viability, T/C [5] 130% | viability, T/C [26] 142% | viability, T/C [6] 112% | viability, T/C [7] 96.7% | viability, T/C [8] 118% | viability, T/C [9] 130% | viability, T/C [10] 154% | viability, T/C [27] 101% | viability, T/C [11] 106% | viability, T/C [12] 102% | viability, T/C [13] 129% | viability, T/C [14] 138% | viability, T/C [15] 89.9% | viability, T/C [28] 107% | viability, T/C [16] 103% | viability, T/C [17] 99.5% | viability, T/C [18] 103% | viability, T/C [19] 119% | viability, T/C [20] 114% | viability, T/C [29] 114% | viability, T/C [21] 89.6% | viability, T/C [22] 94.7% | viability, T/C [23] 106% | viability, T/C [24] 93.5% | viability, T/C [25] 79.4% | viability, T/C [30] 76.5%
> 100 nM: IC50 (second compound 0.1 µM) | IC50 (second compound 0.316 µM) | IC50 (second compound 1 µM) | IC50 (second compound 3.16 µM) | IC50 (second compound 10 µM)

COc1cc(Nc2ncc3c(n2)-c2ccc(Cl)cc2C(c2c(F)cccc2OC)=NC3)ccc1C(=O)O + C=CC(=O)N1CCN(c2nc(=O)n(-c3c(C)ccnc3C(C)C)c3nc(-c4c(O)cccc4F)c(F)cc23)C(C)C1
> 10000 nM: IC50 (second compound 0.1 µM) | IC50 (second compound 0.316 µM) | IC50 (second compound 1 µM) | IC50 (second compound 3.16 µM) | IC50 (second compound 10 µM)
inactive: viability, T/C [5] 144% | viability, T/C [26] 117% | viability, T/C [31] 141% | viability, T/C [32] 140% | viability, T/C [33] 138% | viability, T/C [34] 133% | viability, T/C [10] 116% | viability, T/C [27] 107% | viability, T/C [35] 135% | viability, T/C [36] 140% | viability, T/C [37] 154% | viability, T/C [38] 134% | viability, T/C [15] 88.9% | viability, T/C [28] 107% | viability, T/C [39] 96% | viability, T/C [40] 127% | viability, T/C [41] 123% | viability, T/C [42] 118% | viability, T/C [20] 104% | viability, T/C [29] 93.5% | viability, T/C [43] 142% | viability, T/C [44] 118% | viability, T/C [45] 144% | viability, T/C [46] 103% | viability, T/C [25] 83.3% | viability, T/C [30] 66% | viability, T/C [47] 97.7% | viability, T/C [48] 79.5% | viability, T/C [49] 116% | viability, T/C [50] 90.5%

COc1cc2nccc(Oc3ccc(NC(=O)C4(C(=O)Nc5ccc(F)cc5)CC4)cc3)c2cc1OC + C=CC(=O)N1CCN(c2nc(=O)n(-c3c(C)ccnc3C(C)C)c3nc(-c4c(O)cccc4F)c(F)cc23)C(C)C1
1520 nM: IC50 (second compound 3.16 µM)
1730 nM: IC50 (second compound 0.1 µM)
active: viability, T/C [33] 6.77% | viability, T/C [34] 8.36% | viability, T/C [37] 6.54% | viability, T/C [38] 10.2% | viability, T/C [41] 2.49% | viability, T/C [42] 8.75% | viability, T/C [45] 2.99% | viability, T/C [46] 6.07% | viability, T/C [50] 2.5%
1590 nM: IC50 (second compound 0.316 µM)
461 nM: IC50 (second compound 10 µM)
1690 nM: IC50 (second compound 1 µM)
inactive: viability, T/C [5] 108% | viability, T/C [26] 111% | viability, T/C [31] 81.8% | viability, T/C [32] 88.8% | viability, T/C [10] 91.1% | viability, T/C [27] 122% | viability, T/C [35] 71.7% | viability, T/C [36] 78.3% | viability, T/C [15] 111% | viability, T/C [28] 118% | viability, T/C [39] 85.8% | viability, T/C [40] 87.5% | viability, T/C [20] 88.4% | viability, T/C [29] 77% | viability, T/C [43] 90% | viability, T/C [44] 76.1% | viability, T/C [25] 97.4% | viability, T/C [30] 78.5% | viability, T/C [47] 56.1% | viability, T/C [48] 41.7% | viability, T/C [49] 2%
